According to patent US11472791B2 (Incyte Corporation, priority 2019, dated 2022):

What follows are compounds tested against CDK2/Cyclin E1 (Homo sapiens (Human), UniProt P24941) (assay: CDK2/Cyclin E1 HTRF enzyme activity assay). Conditions: 1 mM ATP.
Format: biochemical
Experimental: Assays are conducted in white 384-well polystyrene plates in a final reaction volume of 8 μL. […] HTRF signals are read after 1 hour at room temperature on a PHERAstar FS plate reader (BMG Labtech). Data is analyzed with IDBS XLFit and GraphPad Prism 5.0 software using a three or four parameter dose response curve to determine IC50 for each compound.

For `O=S(=O)(C1CCOCC1)N1CCC(Nc2ncc(C(F)(F)F)c(-c3cnn(C4CCOCC4)c3)n2)CC1` [Example 6, 4-(1-(Tetrahydro-2H-pyran-4-yl)-1H-pyrazol-4-yl)-N-(1-((tetrahydro-2H-pyran-4-yl)sulfonyl)piperidin-4-yl)-5-(trifluoromethyl)pyrimidin-2-amine], which IC50 is on record?
The IC50 was under 50 nM.

`Cc1cc(CN2CCN(CC3CC3)CC2)ccc1-n1cc(-c2nc(NC3CCN(S(=O)(=O)c4cn(C)cn4)CC3)ncc2C(F)(F)F)cn1` [Example 236, 4-(1-(4-((4-(Cyclopropylmethyl)piperazin-1-yl)methyl)-2-methylphenyl)-1H-pyrazol-4-yl)-N-(1-((1-methyl-1H-imidazol-4-yl)sulfonyl)piperidin-4-yl)-5-(trifluoromethyl)pyrimidin-2-amine] was tested. Which IC50 did it give?
Its IC50 is under 50 nM.

For `Cn1cc(S(=O)(=O)N2CCC(Nc3ncc(C(F)(F)F)c(-c4cnn(C5CCOCC5)c4)n3)CC2)cn1` [Example 9, N-(1-((1-Methyl-1H-pyrazol-4-yl)sulfonyl)piperidin-4-yl)-4-(1-(tetrahydro-2H-pyran-4-yl)-1H-pyrazol-4-yl)-5-(trifluoromethyl)pyrimidin-2-amine], which IC50 is on record?
The IC50 was under 50 nM.

Which IC50 does the source give for `CC(C)(O)Cn1cc(-c2nc(NC3CCN(S(=O)(=O)CCCN4CCNC(=O)C4)CC3)ncc2C(F)(F)F)cn1` [Example 69, 4-(3-((4-((4-(1-(2-Hydroxy-2-methylpropyl)-1H-pyrazol-4-yl)-5-(trifluoromethyl)pyrimidin-2-yl)amino)piperidin-1-yl)sulfonyl)propyl)piperazin-2-one] here?
The IC50 was under 50 nM.

How did the IC50 turn out when `CC(C)(O)Cn1cc(-c2nc(NC3CCN(S(=O)(=O)C4CCC(N5CCCC5)CC4)CC3)ncc2C(F)(F)F)cn1` (single isomer, unassigned) [91 (peak 2), 2-Methyl-1-(4-(2-((1-((4-(pyrrolidin-1-yl)cyclohexyl)sulfonyl)piperidin-4-yl)amino)-5-(trifluoromethyl)pyrimidin-4-yl)-1H-pyrazol-1-yl)propan-2-ol] was run?
The IC50 was under 50 nM.

Which IC50 does the source give for `CN(C)C1CCCCC1NCc1ccc(-n2cc(-c3nc(NC4CCN(S(C)(=O)=O)CC4)ncc3C#N)cn2)c(Cl)c1` (stereo not drawn) [Example 184, 4-(1-(2-Chloro-4-(((2-(dimethylamino)cyclohexyl)amino)methyl)phenyl)-1H-pyrazol-4-yl)-2-((1-(methylsulfonyl)piperidin-4-yl)amino)pyrimidine-5-carbonitrile] here?
The IC50 was under 50 nM.

For `CC(C)(CO)NCc1ccc(-n2cc(-c3nc(NC4CCN(S(C)(=O)=O)CC4)ncc3C#N)cn2)c(Cl)c1` [Example 157, 4-(1-(2-Chloro-4-(((1-hydroxy-2-methylpropan-2-yl)amino)methyl)phenyl)-1H-pyrazol-4-yl)-2-((1-(methylsulfonyl)piperidin-4-yl)amino)pyrimidine-5-carbonitrile], which IC50 is on record?
The IC50 was under 50 nM.

With `C[C@@H]1CN(S(=O)(=O)c2cnn(C)c2)CC[C@@H]1Nc1ncc(C(F)(F)F)c(-c2cnn(CC(C)(C)O)c2)n1` [Example 60, 2-Methyl-1-(4-(2-(((3R,4S)-3-methyl-1-((1-methyl-1H-pyrazol-4-yl)sulfonyl)piperidin-4-yl)amino)-5-(trifluoromethyl)pyrimidin-4-yl)-1H-pyrazol-1-yl)propan-2-ol] as the compound, how does the IC50 read?
Its IC50 is under 50 nM.

`CNCc1ccc(-n2cc(-c3nc(N[C@H]4CCN(S(=O)(=O)C(C)C)C[C@H]4F)ncc3C#N)cn2)c(Cl)c1` [Example 119, 4-(1-(2-Chloro-4-((methylamino)methyl)phenyl)-1H-pyrazol-4-yl)-2-(((3R,4S)-3-fluoro-1-(isopropylsulfonyl)piperidin-4-yl)amino)pyrimidine-5-carbonitrile] was tested. Which IC50 did it give?
Its IC50 is under 50 nM.

With `[2H]C([2H])([2H])NCc1ccc(-n2cc(-c3nc(NC4CCN(S(C)(=O)=O)CC4)ncc3C(F)(F)F)cn2)c(C)c1` [Example 128, 4-(1-(2-Methyl-4-(((methyl-d3)amino)methyl)phenyl)-1H-pyrazol-4-yl)-N-(1-(methylsulfonyl)piperidin-4-yl)-5-(trifluoromethyl)pyrimidin-2-amine] as the compound, how does the IC50 read?
The IC50 was under 50 nM.

Which IC50 does the source give for `Cc1nc(CNC(C)C)ccc1-n1cc(-c2nc(N[C@H]3CCN(S(=O)(=O)c4cn(C)cn4)C[C@H]3C)ncc2C(F)(F)F)cn1` [Example 276, 4-(1-(6-((Isopropylamino)methyl)-2-methylpyridin-3-yl)-1H-pyrazol-4-yl)-N-((3R,4S)-3-methyl-1-((1-methyl-1H-imidazol-4-yl)sulfonyl)piperidin-4-yl)-5-(trifluoromethyl)pyrimidin-2-amine] here?
Its IC50 is under 50 nM.

With `Cc1cc(CN2CCN(C(C)C)CC2)ccc1-n1cc(-c2nc(NC3CCN(S(=O)(=O)c4cn(C)cn4)CC3)ncc2Cl)cn1` [Example 247, 5-Chloro-4-(1-(4-((4-isopropylpiperazin-1-yl)methyl)-2-methylphenyl)-1H-pyrazol-4-yl)-N-(1-((1-methyl-1H-imidazole-4-yl)sulfonyl)piperidin-4-yl)pyrimidin-2-amine] as the compound, how does the IC50 read?
Its IC50 is under 50 nM.

`CN1CCN(Cc2ccc(-n3cc(-c4nc(NC5CCN(S(=O)(=O)c6ccccn6)CC5)ncc4C#N)cn3)c(Cl)c2)CC1` [Example 258, 4-(1-(2-Chloro-4-((4-methylpiperazin-1-yl)methyl)phenyl)-1H-pyrazol-4-yl)-2-((1-(pyridin-2-ylsulfonyl)piperidin-4-yl)amino)pyrimidine-5-carbonitrile] was tested. Which IC50 did it give?
The IC50 was under 50 nM.

How did the IC50 turn out when `CCN1CCN(Cc2ccc(-n3cc(-c4nc(NC5CCN(S(C)(=O)=O)CC5)ncc4C(F)(F)F)cn3)c(C)c2)CC1` [Example 232, 4-(1-(4-((4-Ethylpiperazin-1-yl)methyl)-2-methylphenyl)-1H-pyrazol-4-yl)-N-(1-(methylsulfonyl)piperidin-4-yl)-5-(trifluoromethyl)pyrimidin-2-amine] was run?
The IC50 was under 50 nM.

Which IC50 does the source give for `C[C@@H]1CN(S(=O)(=O)c2cn(C)cn2)CC[C@@H]1Nc1ncc(C(F)(F)F)c(-c2cnn(CC(C)(C)O)c2)n1` [Example 61, 2-Methyl-1-(4-(2-(((3R,4S)-3-methyl-1-((1-methyl-1H-imidazol-4-yl)sulfonyl)piperidin-4-yl)amino)-5-(trifluoromethyl)pyrimidin-4-yl)-1H-pyrazol-1-yl)propan-2-ol] here?
The IC50 was under 50 nM.

With `C[C@]1(N)C[C@@H](n2cc(-c3nc(NC4CCN(S(=O)(=O)C5CCC5)CC4)ncc3C(F)(F)F)cn2)C1` [Example 46, 4-(1-((1s,3s)-3-Amino-3-methylcyclobutyl)-1H-pyrazol-4-yl)-N-(1-(cyclobutylsulfonyl)piperidin-4-yl)-5-(trifluoromethyl)pyrimidin-2-amine] as the compound, how does the IC50 read?
The IC50 was under 50 nM.

With `CNCc1ccc(-n2cc(-c3nc(NC4CCN(S(=O)(=O)c5cn(C)cn5)CC4)ncc3C#N)cn2)c(C)n1` [Example 126, 2-((1-((1-Methyl-1H-imidazol-4-yl)sulfonyl)piperidin-4-yl)amino)-4-(1-(2-methyl-6-((methylamino)methyl)pyridin-3-yl)-1H-pyrazol-4-yl)pyrimidine-5-carbonitrile] as the compound, how does the IC50 read?
The IC50 was under 50 nM.

Which IC50 does the source give for `CCN(CC)CCCS(=O)(=O)N1CCC(Nc2ncc(C#N)c(-c3cnn(CC(C)(C)O)c3)n2)CC1` [Example 213, 2-((1-((3-(Diethylamino)propyl)sulfonyl)piperidin-4-yl)amino)-4-(1-(2-hydroxy-2-methylpropyl)-1H-pyrazol-4-yl)pyrimidine-5-carbonitrile] here?
The IC50 was under 50 nM.
